Measured values from PubChem BioAssay (NCI).
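Dose response: 5 concentrations. Exposure: 48 h. Format: 96-well plates. Endpoint: linear interpolation; highest concentration if not reached. Definition used: TGI = concentration required for complete inhibition of growth.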

How the values were obtained:
Assay in all cases: NCI anticancer screen, dose series, 48 h
NCI-H522 lung = tested on: NCI-H522 lung
TK-10 renal = tested on: TK-10 renal
A498 renal = tested on: A498 renal
UO-31 renal = tested on: UO-31 renal
K-562 leukemia = tested on: K-562 leukemia
SNB-75 CNS = tested on: SNB-75 CNS
NCI-H23 lung = tested on: NCI-H23 lung
OVCAR-8 ovarian = tested on: OVCAR-8 ovarian
SF-539 CNS = tested on: SF-539 CNS
786-0 renal = tested on: 786-0 renal
RPMI-8226 leukemia = tested on: RPMI-8226 leukemia
MCF7 breast = tested on: MCF7 breast
NCI-H226 lung = tested on: NCI-H226 lung
NCI/ADR-RES ovarian = tested on: NCI/ADR-RES ovarian
SN12C renal = tested on: SN12C renal
MOLT-4 leukemia = tested on: MOLT-4 leukemia
T-47D breast = tested on: T-47D breast
OVCAR-5 ovarian = tested on: OVCAR-5 ovarian
ACHN renal = tested on: ACHN renal
MDA-N = tested on: MDA-N
HL-60(TB) leukemia = tested on: HL-60(TB) leukemia
U251 CNS = tested on: U251 CNS
HT29 colon = tested on: HT29 colon
COLO 205 colon = tested on: COLO 205 colon
A549 NSCLC = tested on: A549 NSCLC
HCC-2998 colon = tested on: HCC-2998 colon
BT-549 breast = tested on: BT-549 breast
SW-620 colon = tested on: SW-620 colon
SK-MEL-28 melanoma = tested on: SK-MEL-28 melanoma
IGROV1 ovarian = tested on: IGROV1 ovarian
OVCAR-4 ovarian = tested on: OVCAR-4 ovarian
MDA-MB-435 = tested on: MDA-MB-435
SF-295 CNS = tested on: SF-295 CNS
HCT-116 colon = tested on: HCT-116 colon
KM12 colon = tested on: KM12 colon
SK-MEL-2 melanoma = tested on: SK-MEL-2 melanoma
HCT-15 colon = tested on: HCT-15 colon
HOP-62 NSCLC = tested on: HOP-62 NSCLC
UACC-257 melanoma = tested on: UACC-257 melanoma
UACC-62 melanoma = tested on: UACC-62 melanoma
SK-OV-3 ovarian = tested on: SK-OV-3 ovarian
CAKI-1 renal = tested on: CAKI-1 renal
EKVX NSCLC = tested on: EKVX NSCLC
LOX IMVI melanoma = tested on: LOX IMVI melanoma
SNB-19 CNS = tested on: SNB-19 CNS
MDA-MB-231 breast = tested on: MDA-MB-231 breast
PC-3 prostate = tested on: PC-3 prostate
M14 melanoma = tested on: M14 melanoma
SK-MEL-5 melanoma = tested on: SK-MEL-5 melanoma
MALME-3M melanoma = tested on: MALME-3M melanoma
OVCAR-3 ovarian = tested on: OVCAR-3 ovarian
SR leukemia = tested on: SR leukemia
HS 578T breast = tested on: HS 578T breast
NCI-H460 lung = tested on: NCI-H460 lung
SF-268 CNS = tested on: SF-268 CNS
RXF 393 renal = tested on: RXF 393 renal
HOP-92 NSCLC = tested on: HOP-92 NSCLC

**Q.** `NNC1=N/C(=C\c2ccco2)C(=O)N1` was tested. Which TGI (NCI-H522 lung) did it give?
**A.** > 100 µM

**Q.** And the TGI (TK-10 renal)?
**A.** > 100 µM

**Q.** And the TGI (A498 renal)?
**A.** > 100 µM

**Q.** What about the TGI (UO-31 renal) of the same molecule?
**A.** > 100 µM

**Q.** And the TGI (K-562 leukemia)?
**A.** > 100 µM

**Q.** What about the TGI (SNB-75 CNS) of the same molecule?
**A.** > 100 µM

**Q.** And the TGI (NCI-H23 lung)?
**A.** > 100 µM

**Q.** What about the TGI (OVCAR-8 ovarian) of the same molecule?
**A.** > 100 µM

**Q.** What about the TGI (SF-539 CNS) of the same molecule?
**A.** > 100 µM

**Q.** And the TGI (786-0 renal)?
**A.** > 100 µM

**Q.** What about the TGI (RPMI-8226 leukemia) of the same molecule?
**A.** > 100 µM

**Q.** And the TGI (MCF7 breast)?
**A.** > 100 µM

**Q.** And the TGI (NCI-H226 lung)?
**A.** > 100 µM

**Q.** What about the TGI (NCI/ADR-RES ovarian) of the same molecule?
**A.** > 100 µM

**Q.** What about the TGI (SN12C renal) of the same molecule?
**A.** > 100 µM

**Q.** And the TGI (MOLT-4 leukemia)?
**A.** > 100 µM

**Q.** And the TGI (T-47D breast)?
**A.** > 100 µM

**Q.** And the TGI (OVCAR-5 ovarian)?
**A.** > 100 µM

**Q.** What about the TGI (ACHN renal) of the same molecule?
**A.** > 100 µM

**Q.** And the TGI (MDA-N)?
**A.** > 100 µM

**Q.** And the TGI (HL-60(TB) leukemia)?
**A.** > 100 µM

**Q.** What about the TGI (U251 CNS) of the same molecule?
**A.** > 100 µM

**Q.** And the TGI (HT29 colon)?
**A.** > 100 µM

**Q.** What about the TGI (COLO 205 colon) of the same molecule?
**A.** > 100 µM

**Q.** And the TGI (A549 NSCLC)?
**A.** > 100 µM

**Q.** And the TGI (HCC-2998 colon)?
**A.** > 100 µM

**Q.** And the TGI (BT-549 breast)?
**A.** > 100 µM

**Q.** What about the TGI (SW-620 colon) of the same molecule?
**A.** > 100 µM

**Q.** What about the TGI (SK-MEL-28 melanoma) of the same molecule?
**A.** > 100 µM

**Q.** And the TGI (IGROV1 ovarian)?
**A.** > 100 µM

**Q.** What about the TGI (OVCAR-4 ovarian) of the same molecule?
**A.** > 100 µM

**Q.** What about the TGI (MDA-MB-435) of the same molecule?
**A.** > 100 µM

**Q.** What about the TGI (SF-295 CNS) of the same molecule?
**A.** > 100 µM

**Q.** What about the TGI (HCT-116 colon) of the same molecule?
**A.** > 100 µM

**Q.** What about the TGI (KM12 colon) of the same molecule?
**A.** > 100 µM

**Q.** And the TGI (SK-MEL-2 melanoma)?
**A.** > 100 µM

**Q.** And the TGI (HCT-15 colon)?
**A.** > 100 µM

**Q.** What about the TGI (HOP-62 NSCLC) of the same molecule?
**A.** > 100 µM

**Q.** And the TGI (UACC-257 melanoma)?
**A.** > 100 µM

**Q.** What about the TGI (UACC-62 melanoma) of the same molecule?
**A.** > 100 µM

**Q.** And the TGI (SK-OV-3 ovarian)?
**A.** > 100 µM

**Q.** And the TGI (CAKI-1 renal)?
**A.** > 100 µM

**Q.** And the TGI (EKVX NSCLC)?
**A.** > 100 µM

**Q.** What about the TGI (LOX IMVI melanoma) of the same molecule?
**A.** > 100 µM

**Q.** And the TGI (SNB-19 CNS)?
**A.** > 100 µM

**Q.** What about the TGI (MDA-MB-231 breast) of the same molecule?
**A.** > 100 µM

**Q.** What about the TGI (PC-3 prostate) of the same molecule?
**A.** > 100 µM

**Q.** And the TGI (M14 melanoma)?
**A.** > 100 µM

**Q.** What about the TGI (SK-MEL-5 melanoma) of the same molecule?
**A.** > 100 µM

**Q.** What about the TGI (MALME-3M melanoma) of the same molecule?
**A.** > 100 µM

**Q.** And the TGI (OVCAR-3 ovarian)?
**A.** > 100 µM

**Q.** What about the TGI (SR leukemia) of the same molecule?
**A.** > 100 µM

**Q.** What does the source list for `Cc1ccc(Nc2[nH]c(=O)[nH]c(=O)c2C)cc1Cl`?
**A.** TGI (NCI-H522 lung): > 100 µM; TGI (TK-10 renal): > 100 µM; TGI (A498 renal): > 100 µM; TGI (UO-31 renal): > 100 µM; TGI (HS 578T breast): > 100 µM; TGI (K-562 leukemia): > 100 µM; TGI (SNB-75 CNS): > 100 µM; TGI (NCI-H23 lung): > 100 µM; TGI (OVCAR-8 ovarian): > 100 µM; TGI (SF-539 CNS): > 100 µM; TGI (NCI-H460 lung): > 100 µM; TGI (786-0 renal): > 100 µM; TGI (RPMI-8226 leukemia): > 100 µM; TGI (MCF7 breast): 59.7 µM; TGI (NCI-H226 lung): > 100 µM; TGI (NCI/ADR-RES ovarian): > 100 µM; TGI (SN12C renal): > 100 µM; TGI (T-47D breast): > 100 µM; TGI (OVCAR-5 ovarian): > 100 µM; TGI (SF-268 CNS): > 100 µM; TGI (RXF 393 renal): > 100 µM; TGI (ACHN renal): > 100 µM; TGI (MDA-N): > 100 µM; TGI (U251 CNS): > 100 µM; TGI (HT29 colon): > 100 µM; TGI (COLO 205 colon): > 100 µM; TGI (A549 NSCLC): > 100 µM; TGI (HCC-2998 colon): > 100 µM; TGI (BT-549 breast): > 100 µM; TGI (SW-620 colon): > 100 µM; TGI (SK-MEL-28 melanoma): > 100 µM; TGI (IGROV1 ovarian): > 100 µM; TGI (OVCAR-4 ovarian): > 100 µM; TGI (MDA-MB-435): > 100 µM; TGI (SF-295 CNS): 72.3 µM; TGI (HCT-116 colon): > 100 µM; TGI (KM12 colon): > 100 µM; TGI (SK-MEL-2 melanoma): > 100 µM; TGI (HCT-15 colon): > 100 µM; TGI (HOP-62 NSCLC): > 100 µM; TGI (UACC-257 melanoma): > 100 µM; TGI (UACC-62 melanoma): > 100 µM; TGI (HOP-92 NSCLC): > 100 µM; TGI (SK-OV-3 ovarian): > 100 µM; TGI (CAKI-1 renal): > 100 µM; TGI (EKVX NSCLC): > 100 µM; TGI (LOX IMVI melanoma): > 100 µM; TGI (SNB-19 CNS): > 100 µM; TGI (MDA-MB-231 breast): > 100 µM; TGI (PC-3 prostate): > 100 µM; TGI (M14 melanoma): > 100 µM; TGI (SK-MEL-5 melanoma): > 100 µM; TGI (MALME-3M melanoma): > 100 µM; TGI (OVCAR-3 ovarian): > 100 µM
